Reference: US20250082655A1, “USE OF HETEROCYCLIC COMPOUND” (WUHAN CREATERNA SCIENCE AND TECHNOLOGY CO., LTD., priority 2022, published 2025)
“And” between values parts separate entries of the source, which are not always exact repeats. Identical values can stand only once.

Test system: citric acid-induced acute cough in guinea pigs
Test: ATP-sensitized citric acid-induced acute cough model in guinea pigs (WBP system)
Format: in vivo, guinea pig
Settings: for Total cough count (CCnt): within 10 minutes, Mean ± SEM, N = 12; for Change rate of total cough count: versus solvent group; for average cough times decreased compared to the solvent group: decrease; for antitussive effect (in words): compared to the solvent group
Description: • Male Hartley guinea pigs: Beijing Vital River Laboratory Animal Technology Co., Ltd; • 250 μM ATP solution: Sigma, catalog number A2383; • 0.5 M citric acid solution: Sigma, catalog number C2404; • DSI Buxco Whole Body Plethysmography (WBP) system instrument: manufacturer DSI, serial numbers 100249, 990171; • Electronic balance: Mettler Toledo, serial number B844687071.
• Solvent (10% (v/v) E-TPGS aqueous solution, pH 7.4±0.1): TPGS was heated and melted into a liquid in a water bath. 10 mL of TPGS was taken and then added to 85 mL of deionized water, and the mixture was stirred to form a homogeneous solution. The pH was adjusted to 7.4±0.1 using an appropriate concentration of HCl/NaOH. The final volume was made up to 100 mL with deionized water, and the mixture was stirred until visually homogeneous. The pH was checked, and if necessary, adjusted to 7.4±0.1 using an appropriate concentration of HCl/NaOH.
The administration formulation was prepared under yellow light conditions.
The required mass of the compound was accurately weighed into an appropriate container, and slowly added to a suitable container containing 80% of the final volume of the solvent (10% (v/v) E-TPGS aqueous solution, pH 7.4±0.1), and the mixture was stirred until visually homogeneous. The solvent was added to 90% of the final volume, and the mixture was stirred until visually homogeneous. If necessary, the pH was adjusted to 7.3-7.6 with an appropriate concentration of HCl/NaOH. If necessary, the formulation was subjected to ultrasonic treatment. The solvent was then added to the final volume, and the mixture was stirred until a visually clear and homogeneous solution was obtained.
After the preparation of the administration formulation was completed, the administration formulation was aliquoted into daily doses and stored in a refrigerator at 2-8° C., protected from light, and used within 10 days. Prior to administration, the formulation was removed from the refrigerator 30 minutes in advance, and stirred for 30 minutes at room temperature and protected from light until it reached room temperature.
Preparation of dextromethorphan: the required volume for administration was calculated based on the animal's body weight. The weighting amount of dextromethorphan (DM) was determined based on the administration volume and dose. The DM was accurately weighed and dissolved in 1×PBS (Phosphate Buffered Saline) with the calculated administration volume. The solution was mixed homogeneously by shaking until a clear solution was formed, and it was prepared freshly before use.
In the experiment, the solvent (10% (v/v) E-TPGS (Vitamin E Polyethylene Glycol Succinate)) and each test compound were administered to guinea pigs by gavage 3 hours prior to citric acid nebulization. The reference compound, dextromethorphan (DM), was administered to guinea pigs by gavage 40 minutes prior to citric acid nebulization (see Table 1 for details).
At the scheduled time, male Hartley guinea pigs (300-400 g) were placed in the respiratory volume plethysmography chamber of the DSI Buxco Whole Body Plethysmography (WBP) system. After an acclimation period of 3-5 minutes, a solution of ATP with a concentration of 250 μM was nebulized and sprayed into the chamber for 2 minutes. After a 3-minute interval, a solution of citric acid with a concentration of 0.5 M was administered for 5 minutes to induce coughing. From the start of citric acid nebulization, the WBP system recorded the total cough counts (CCnt) within 10 minutes and the cough incubation period (CIP, i.e., the time from the start of citric acid induction to the appearance of the first cough).

[1] = 30 mg/kg oral single dose 3 hours before citric acid nebulization
[2] = 30 mg/kg oral, 3 hours before citric acid nebulization
[3] = 30 mg/kg oral, 3 hours before citric acid

| SMILES | Total cough count (CCnt) [1] | Cough incubation period (CIP) [2] | Change rate of total cough count [3] | average cough times decreased compared to the solvent group (30 mg/kg oral) | antitussive effect (in words) | Total cough count (CCnt) (3 mg/kg oral single dose 3 hours before citric acid nebulization) | Cough incubation period (CIP) (3 mg/kg oral, 3 hours before citric acid nebulization) | Change rate of total cough count (3 mg/kg oral, 3 hours before citric acid) | average cough times decreased compared to the solvent group (3 mg/kg oral) | Total cough count (CCnt) (10 mg/kg oral single dose 3 hours before citric acid nebulization) | Cough incubation period (CIP) (10 mg/kg oral, 3 hours before citric acid nebulization) | Change rate of total cough count (10 mg/kg oral, 3 hours before citric acid) | average cough times decreased compared to the solvent group (10 mg/kg oral) | Total cough count (CCnt) (63 mg/kg oral single dose 40 minutes before citric acid nebulization) | Cough incubation period (CIP) (63 mg/kg oral, 40 minutes before citric acid nebulization) | Change rate of total cough count (63 mg/kg oral, 40 minutes before citric acid) |
| --- | --- | --- | --- | --- | --- | --- | --- | --- | --- | --- | --- | --- | --- | --- | --- | --- |
| O=c1[nH]ncc(N2CCc3c(ncnc3Oc3ccc(F)cc3C(F)(F)F)C2)c1Cl [Compound 2-1] | 12.75 ± 1.86 times | 290.08 s and 290.08 ± 43.61 s | −40.70% | 40.70% | good antitussive efficacy | – | – | – | – | – | – | – | – | – | – | – |
| O=C(c1ccc(F)cc1C(F)(F)F)c1cnc2n1CCN(c1cnn(COP(=O)(O)O)c(=O)c1Cl)C2 [Compound 1, (5-chloro-4-(3-(4-fluoro-2-(trifluoromethyl)benzoyl)-5,6-dihydroimidazo[1,2-a]pyrazin-7(8H)-yl)-6-oxopyridazin-1(6H)-yl)methyl Dihydrogen Phosphate] | 10.73 times and 10.73 ± 1.71 times | 293.75 s and 293.75 ± 33.66 s | −50.11% | 50.11% | good antitussive effect | 17.00 times and 17.00 ± 2.11 times | 234.42 s and 234.42 ± 24.11 s | −20.93% | 20.93% | 13.42 times and 13.42 ± 1.18 times | 283.67 s and 283.67 ± 42.98 s | −37.60% | 37.60% | – | – | – |
| COc1ccc2c(c1)[C@]13CCCC[C@@H]1[C@H](C2)N(C)CC3 [DM, dextromethorphan, reference compound] | – | – | – | – | – | – | – | – | – | – | – | – | – | 12.17 times and 12.17 ± 2.76 ^c times | 291.00 s and 291.00 ± 41.65 s | −43.41% |
| O=c1c(-c2ccc(O)cc2)coc2cc(O)cc(O)c12 [Compound 3-1] | 11.83 ± 2.02 times | 281.67 s and 281.67 ± 37.84 s | −44.96% | 44.96% | good antitussive efficacy | – | – | – | – | – | – | – | – | – | – | – |
